The supplement of paper PMC10627819

Legend:
[1] = test system: S. pneumoniae D39V; experiment: Bliss interaction score (quartile over a dose matrix) (fitness difference); higher = more antagonism (negative = synergy)
Outline: (§1)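 The Bliss score is observed minus expected fitness, where expected fitness is the product of the single-drug fitness values inferred from the combination data. Fitness is the OD595 at the onset of stationary phase over the plate's robust no-drug mean, capped at 1. Scores are summarised by quartiles over technical, biological and donor/recipient replicates.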

[2] = test system: B. subtilis 168; experiment: as above
Outline: as §1

[3] = test system: S. aureus DSM 20231; experiment: as above
Outline: as §1

[4] = test system: S. aureus Newman; experiment: as above
Outline: as §1

[5] = test system: S. pneumoniae D39V; experiment: fitness (endpoint OD595 vs no drug) (fraction); higher = more growth
Outline: (§2)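 With the first reading as background, OD595 was measured every 30 min for 14 h in 384-well plates kept at 37 °C and inoculated at OD595 0.01. TSB, LB Lennox or CY was the medium. Fitness is the optical density at the transition into stationary phase divided by the robust mean of no-drug control wells, with a cap of 1.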

[6] = test system: B. subtilis 168; experiment: as above
Outline: as §2

[7] = test system: S. aureus Newman; experiment: as above
Outline: as §2

[8] = first compound 0.125 µg/mL, partner 0.325 µg/mL
[9] = first compound 0.125 µg/mL, partner 0.65 µg/mL
[10] = first compound 0.125 µg/mL, partner 1.3 µg/mL
[11] = first compound 0.25 µg/mL, partner 0.65 µg/mL
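Wherever Bliss interaction score (quartile over a dose matrix) is given: first quartile when negative (synergy) and third quartile when positive (antagonism).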
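Wherever fitness (endpoint OD595 vs no drug) is given: OD595 on entry to stationary phase over no-drug wells; at most 1.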

Structure (SMILES): O=C(O)c1cn(C2CC2)c2cc(N3CCNCC3)c(F)cc2c1=O [Ciprofloxacin] + CN1C2=CC=CC=C2N=C3C1=CC=CC3=O [Pyocyanin]
- Bliss interaction score [1]: 0.0709
- Bliss interaction score [2]: 0.104
- Bliss interaction score [3]: 0.0671
- Bliss interaction score [4]: -0.0511
- fitness [5, 8]: 0.989
- fitness [5, 9]: 0.966
- fitness [5, 10]: 0.755
- fitness ([5]; first compound 0.25 µg/mL, partner 0.325 µg/mL): 0.924
- fitness [5, 11]: 0.92
- fitness ([5]; first compound 0.25 µg/mL, partner 1.3 µg/mL, one replicate): 0.54
- fitness ([6]; first compound 0.0098 µg/mL, partner 1.25 µg/mL): 0.911
- fitness ([6]; first compound 0.0098 µg/mL, partner 2.5 µg/mL): 0.809
- fitness ([6]; first compound 0.0098 µg/mL, partner 5 µg/mL): 0.814
- fitness ([6]; first compound 0.0195 µg/mL, partner 2.5 µg/mL): 0.703
- fitness ([6]; first compound 0.0195 µg/mL, partner 5 µg/mL): 0.649
- fitness ([7]; first compound 0.0375 µg/mL, partner 1.25 µg/mL): 0.601
- fitness ([7]; first compound 0.0375 µg/mL, partner 2.5 µg/mL): 0.574
- fitness ([7]; first compound 0.0375 µg/mL, partner 5 µg/mL): 0.38
- fitness ([7]; first compound 0.075 µg/mL, partner 1.25 µg/mL): 0.578
- fitness ([7]; first compound 0.075 µg/mL, partner 2.5 µg/mL): 0.533
- fitness ([7]; first compound 0.075 µg/mL, partner 5 µg/mL): 0.26
- fitness ([7]; first compound 0.15 µg/mL, partner 1.25 µg/mL): 0.0395
- fitness ([7]; first compound 0.15 µg/mL, partner 2.5 µg/mL): 0.0384
- fitness ([7]; first compound 0.15 µg/mL, partner 5 µg/mL): 0.0694

Structure (SMILES): O=C(O)c1cn(C2CC2)c2cc(N3CCNCC3)c(F)cc2c1=O [Ciprofloxacin] + CN(C)c1cc(NC(=O)CNC(C)(C)C)c(O)c2c1C[C@H]1C[C@H]3[C@H](N(C)C)C(O)=C(C(N)=O)C(=O)[C@@]3(O)C(O)=C1C2=O [Tigecycline]
- Bliss interaction score [1]: -0.0751
- Bliss interaction score [2]: -0.0691
- Bliss interaction score [3]: 0.0365
- Bliss interaction score [4]: -0.0448
- fitness [5, 8]: 0.944
- fitness [5, 9]: 0.895
- fitness [5, 10]: 0.945
- fitness ([5]; first compound 0.125 µg/mL, partner 2.6 µg/mL): 0.856
- fitness ([5]; first compound 0.25 µg/mL, partner 0.325 µg/mL, one replicate): 0.834
- fitness [5, 11]: 0.795
- fitness ([5]; first compound 0.25 µg/mL, partner 1.3 µg/mL): 0.83
- fitness ([5]; first compound 0.25 µg/mL, partner 2.6 µg/mL): 0.767
- fitness ([5]; first compound 0.5 µg/mL, partner 2.6 µg/mL): 0.588
- fitness ([6]; first compound 0.0098 µg/mL, partner 0.039 µg/mL): 0.919
- fitness ([6]; first compound 0.0098 µg/mL, partner 0.078 µg/mL): 0.889
- fitness ([6]; first compound 0.0098 µg/mL, partner 0.125 µg/mL, one replicate): ≥ 1
- fitness ([6]; first compound 0.0098 µg/mL, partner 0.156 µg/mL): 0.821
- fitness ([6]; first compound 0.0098 µg/mL, partner 0.25 µg/mL, one replicate): 0.868
- fitness ([6]; first compound 0.0098 µg/mL, partner 0.5 µg/mL, one replicate): 0.901
- fitness ([6]; first compound 0.0195 µg/mL, partner 0.039 µg/mL): 0.758
- fitness ([6]; first compound 0.0195 µg/mL, partner 0.078 µg/mL): 0.697
- fitness ([6]; first compound 0.0195 µg/mL, partner 0.125 µg/mL, one replicate): 0.964
- fitness ([6]; first compound 0.0195 µg/mL, partner 0.156 µg/mL): 0.713
- fitness ([6]; first compound 0.0195 µg/mL, partner 0.25 µg/mL, one replicate): 0.849
- fitness ([6]; first compound 0.0195 µg/mL, partner 0.5 µg/mL, one replicate): 0.828
- fitness ([6]; first compound 0.039 µg/mL, partner 0.125 µg/mL, one replicate): 0.709
- fitness ([6]; first compound 0.039 µg/mL, partner 0.25 µg/mL, one replicate): 0.335
- fitness ([6]; first compound 0.039 µg/mL, partner 0.5 µg/mL, one replicate): 0.313
- fitness ([7]; first compound 0.0375 µg/mL, partner 0.078 µg/mL): 0.735
- fitness ([7]; first compound 0.0375 µg/mL, partner 0.156 µg/mL): 0.735
- fitness ([7]; first compound 0.075 µg/mL, partner 0.039 µg/mL): 0.656
- fitness ([7]; first compound 0.075 µg/mL, partner 0.078 µg/mL): 0.698
- fitness ([7]; first compound 0.075 µg/mL, partner 0.156 µg/mL): 0.683
- fitness ([7]; first compound 0.15 µg/mL, partner 0.039 µg/mL): 0.0882
- fitness ([7]; first compound 0.15 µg/mL, partner 0.078 µg/mL): 0.045
- fitness ([7]; first compound 0.15 µg/mL, partner 0.156 µg/mL): 0.07

Structure (SMILES): O=C(O)c1cn(C2CC2)c2cc(N3CCNCC3)c(F)cc2c1=O [Ciprofloxacin] + CN(N=O)C(=O)N[C@@H](C=O)[C@@H](O)[C@H](O)[C@H](O)CO [Streptozotocin]
- Bliss interaction score [1]: -0.0511
- Bliss interaction score [2]: -0.082
- Bliss interaction score [3]: -0.0435
- Bliss interaction score [4]: -0.112
- fitness ([5]; first compound 0.125 µg/mL, partner 1.2 µg/mL): 0.929
- fitness ([5]; first compound 0.125 µg/mL, partner 2.4 µg/mL): 0.926
- fitness ([5]; first compound 0.125 µg/mL, partner 4.8 µg/mL): 0.95
- fitness ([5]; first compound 0.25 µg/mL, partner 1.2 µg/mL): 0.839
- fitness ([5]; first compound 0.25 µg/mL, partner 4.8 µg/mL): 0.797
- fitness ([5]; first compound 0.5 µg/mL, partner 4.8 µg/mL): 0.567
- fitness ([6]; first compound 0.0098 µg/mL, partner 0.15 µg/mL): 0.886
- fitness ([6]; first compound 0.0098 µg/mL, partner 0.3 µg/mL): 0.954
- fitness ([6]; first compound 0.0098 µg/mL, partner 0.6 µg/mL): 0.887
- fitness ([6]; first compound 0.0195 µg/mL, partner 0.15 µg/mL): 0.674
- fitness ([6]; first compound 0.0195 µg/mL, partner 0.3 µg/mL): 0.678
- fitness ([6]; first compound 0.0195 µg/mL, partner 0.6 µg/mL): 0.666
- fitness ([6]; first compound 0.039 µg/mL, partner 0.15 µg/mL): 0.117
- fitness ([6]; first compound 0.039 µg/mL, partner 0.3 µg/mL): 0.119
- fitness ([6]; first compound 0.039 µg/mL, partner 0.6 µg/mL): 0.13
- fitness ([7]; first compound 0.0375 µg/mL, partner 0.15 µg/mL): 0.602
- fitness ([7]; first compound 0.0375 µg/mL, partner 0.3 µg/mL): 0.565
- fitness ([7]; first compound 0.0375 µg/mL, partner 0.6 µg/mL): 0.398
- fitness ([7]; first compound 0.075 µg/mL, partner 0.15 µg/mL): 0.448
- fitness ([7]; first compound 0.075 µg/mL, partner 0.6 µg/mL): 0.194
- fitness ([7]; first compound 0.15 µg/mL, partner 0.15 µg/mL): 0.0223
- fitness ([7]; first compound 0.15 µg/mL, partner 0.3 µg/mL): 0.0444
- fitness ([7]; first compound 0.15 µg/mL, partner 0.6 µg/mL): 0.0059
